“Also recorded” adds a separate entry of the source. Counter-ions that a name gives are not always drawn. Like-named read-outs stand apart in the source and are kept apart here. Values belong to the compound of their own block, whether it stands above or below them.
Key:
[1] = BG or BG-d1 metabolites in blood samples after iv injection (HPLC peak height); type: in vivo, male Wistar rats; conditions: rat, iv, BG versus BG-d1
Experimental: (§1) Blood samples were taken from male Wistar rats immediately before and at several intervals after intravenous injection of BG or BG-d1. Blood serum was separated by centrifugation. Equal amounts of blood serum and HPLC-grade acetonitrile were mixed and centrifuged at 13,000 rpm (15,000×g) for 5 minutes. Samples were then analyzed for BG or BG-d1 content by High Performance Liquid Chromatography (HPLC). Samples were placed in an autosampler programmed for replicate injections of […] each onto a 4.6×250 mm LC18 HPLC column. The column was eluted with 45% aqueous methanol delivered at 1 ml/min. BG or BG-d1 were detected by using a spectrofluorometer set at excitation and emission wavelengths of 255 and 283 nm, respectively. The slit width used was 10 nm. Quantitation of the amount of BG or BG-d1 in serum samples was performed with an electronic integrator calibrated with standard solutions of BG or BG-d1 in the mobile phase (Pettersen et al., Anticancer Res., 6; 147-152, 1986).
Measurement of BG or BG-d1 metabolites in blood samples (Table 6)
HPLC of blood samples was performed as indicated above. Relative amounts of BG- or BG-d1 -metabolite were determined by peak height analysis. The peak height from the electronic integrator (in microvolts) of samples taken 30 minutes after iv injection of BG, or 60 minutes after iv injection of BG-d1 were normalized to 1. All other metabolite peaks were compared with these values.
At the same time as BG or BG-d1 metabolism was being determined, a separate metabolite peak appeared in HPLC chromatograms. The increase in BG- and BG-d1 -metabolite and subsequent clearance was measured.

NHIK 3025 cells [2] = experiment: Protein synthesis rate ((3H)valine incorporation); type: cell-based, human; conditions: 3.2 mM
From the text: (§2) Human cells of the established line NHIK 3025, originating from a cervical carcinoma in situ (Nordbye, K., and Oftebro, R. Exp. Cell Res., 58: 458, 1969), Oftebro, R., and Nordbye, K., Exp. Cell Res., 58: 459-460, 1969) were cultivated in Medium E2a (Puck, T.T. et al., J. Exp. Med., 106:145-165, 1957) supplemented with 20% human (prepared at the laboratory) and 10% horse serum (Grand Island Biological Co.). The cells are routinely grown as monolayers in tissue culture flasks.
(§3) The cells were kept in continuous exponential growth by frequent reculturing, i.e., every second and third day, and synchronized cell populations with a high degree of synchrony were obtained by repeated selection of mitotic cells (Pettersen, E. O. et al, Cell Tissue Kinet., 10: 511-522, 1977). During the synchronization procedure, the cells were kept in Medium E2a, and the whole experiment took place in a walk-in incubator at 37° C. Under growth conditions as used here, the NHIK 3025 cells have a medium cell-cycle time of ~18 hr, with medium G1, S1 and G2 durations of ~7, ~8, and ~2.5 hr, respectively.
The rate of protein synthesis was calculated as described previously (Ronning, O. W. et al., J. Cell Physiol., 107: 47-57, 1981). Briefly, cellular protein was labeled to saturation during a 2-day preincubation with (^14 C)valine of constant specific radioactivity (0.5 Ci/mol) prior to the experiment. This was achieved by using a high concentration of valine so that the dilution of (^14 C)valine by intracellular valine and by proteolytically generated valine will be negligible (Ronning, O. W., et al. Exp. Cell Res. 123: 63-72, 1979), thus keeping the specific radioactivity at a constant level. The rate of protein synthesis was calculated from the incorporation of (3H)valine of constant specific activity. The incorporation measurements were related to the total of (^14 C) radioactivity in protein at the beginning of the respective measurement periods and expressed as the percentage per hr (Ronning, O. W. et al, J. Cell, Physiol. 107: 47-57, 1981).
[…] The last measurements were done to test the reversibility of the drugs. Drug concentration: 3.2 mM.

[3] = Concentration of BG or BG-d1 in blood samples after iv injection (HPLC); type: in vivo, male Wistar rats; conditions: rat, iv
Experimental: Measurement of concentration of 4,6-O-benzylidene-D-glucose (BG) or 4,6-O-deuterobenzylidene-d1 -D-glucose (BG-d1) in blood samples (Table 5).
as §1
We have compared the metabolism in rats of BG as well as of deuterated BG (BG-d1). In Table 5 the serum concentration of BG or BG-d1 is shown at various time points after a single iv injection of each drug, respectively.

NHIK 3025 cells [4] = experiment: Cell survival (colony formation) after 24 hr treatment; type: cell-based; conditions: Homo sapiens, NHIK3025, 24 h
From the text: as §2, §3
For measurement of cell survival, appropriate numbers of cells were seeded in plastic Petri dishes (.phi.=5 cm). The number of cells seeded into each dish was adjusted such that the number of surviving cells would be approximately 150 per dish. While exponentially growing (asynchronous) cells were trypsinized before seeding, synchronized cells were seeded immediately after selection. After about 2 hr, the cells had attached to the bottom of the dishes, and the treatment was started by replacing the medium with medium containing the appropriate drug concentration. After the desired time of treatment, the drug-containing medium was removed, and fresh medium was added. The dishes were rinsed once with the same medium as was to be added on addition or removal of drug. After 10 to 12 days at 37° C. in a CO2 incubator, the cells were fixed in ethanol and stained with methylene blue before the colonies were counted.
The cytotoxic effect of benzaldehyde and of deuterobenzaldehyde-d1 was tested on asynchronous, exponentially growing NHIK 3025 cells by counting the number of cells able to form colonies after 24 hr treatment in Petri dishes. In Table 1 the results represent 2 different, independent experiments where the numbers give the mean fraction of surviving cells from 10 parallel dishes (± standard error).
Fraction of cells surviving 24 hr treatment with benzaldehyde or deuterobenzaldehyde - d1 in Petri dishes. (The values represent the mean±standard error from 10 different dishes.)

NHIK 3025 cells [5] = experiment: Duration of mitosis of synchronized cells; type: cell-based, human; conditions: 3.2 mM during mitosis
From the text: as §2, §3
(§4) For detection of the drug effects on cell-cycle kinetics, the same methods were used as described previously (Lindmo, T., and Pettersen, E. O., Cell Tissue Kinet., 12: 43-57, 1979), (Pettersen, E. O. et al, Eur. J. Cancer Clin. Oncol., 19: 507-514; 1983), (Ronning, O.W. et al., J. Cell. Physiol., 109: 411-419, 1981). Briefly, the selected mitotic cells were seeded into 8 tissue culture flasks (25 sq cm) 5000 cells per flask. The cells divided within 1 hr and attached as doublets to the bottom of the flasks. […] Analyses of durations of mitosis were performed from these observations (Table 4).
This effect is probably directly related to the aldehyde group (Pettersen et al. Cancer Res. 45: 2085-2091, 1985). If the deuterated aldehyde group induces different biological effects from the undeuterated one it is therefore good reason to expect this to be expressed as a difference in effect on cells in mitosis. In Table 4 results are shown on prolongation of mitosis of synchronized cells treated with benzaldehyde or deuterobenzaldehyde-d1 during mitosis. The numbers in the table represent the percentage of the cells having a duration of mitosis below 1 hr (which is normal for untreated cells) or above the number of hours indicated on top of each column.

NHIK 3025 cells [6] = experiment: Duration of cell cycle-time of synchronized cells; type: cell-based, human; conditions: 8 hr treatment
From the text: as §2, §3, §4
This is shown by the data in Table 3, where we have used synchronized cells treated over an 8 hr period starting 2 hr after mitotic selection, i.e. when the cells were in early Gl.

[7] = Solubility in water, pH of solution and stability of benzylidene ascorbic acid compounds; type: physicochemical; conditions: for Stability (in words): free acid compared with mono-basic salt
From the text: The structural formula is shown below. The structure has been confirmed by IR and NMR. […] The pH of the solution is 6.6. [drawing 8] The beneficial properties of the drug composition according to the present invention are illustrated below in connection with a series of experiments which have been performed.

[8] = read-out: Cell survival of cells treated for 24 hr
[9] = read-out: Fraction of cells surviving 24 hr treatment

concentration at 0 h ([3]; serum, 0 minutes (estimated), read-out: Amount of unmetabolized drug in blood samples): 345 µM
concentration at 2 min ([3]; serum, 2 minutes, read-out: Amount of unmetabolized drug in blood samples): 220 ± 20 µM
concentration at 5 min ([3]; serum, 5 minutes, read-out: Amount of unmetabolized drug in blood samples): 160 ± 20 µM
concentration at 10 min ([3]; serum, 10 minutes, read-out: Amount of unmetabolized drug in blood samples): 140 ± 20 µM
concentration at 0.25 h ([3]; serum, 15 minutes, read-out: Amount of unmetabolized drug in blood samples): 100 ± 20 µM
concentration at 20 min ([3]; serum, 20 minutes, read-out: Amount of unmetabolized drug in blood samples): 97 ± 3 µM
concentration at 0.5 h ([3]; serum, 30 minutes, read-out: Amount of unmetabolized drug in blood samples): 66 ± 15 µM
concentration at 1 h ([3]; serum, 60 minutes, N.F. = Not Found, read-out: Amount of unmetabolized drug in blood samples): 10 ± 5 µM
half-life ([3]; serum, read-out: half-life in vivo): ~15 min
Structure (SMILES): [2H]C1(c2ccccc2)OC[C@H]2OC(O)[C@H](O)[C@@H](O)[C@@H]2O1 (stereo partly drawn) [BG-d1, 4,6-O-deuterobenzylidene-d1 -D-glucose]
Clearance (or further metabolization) of metabolite (in words) [1]: slower clearance kinetics than that formed from BG
Protein synthesis (NHIK 3025 cells [2]; asynchronous cells, 3 hr treatment, pulse 0-1 hr, during treatment, Table 8, control 5.7 ± 0.5): 3.0 ± 0.3 %/hr
Protein synthesis (NHIK 3025 cells [2]; asynchronous cells, 3 hr treatment, pulse 2-3 hr, during treatment, Table 8, control 5.7 ± 0.5): 3.4 ± 0.3 %/hr
Protein synthesis (NHIK 3025 cells [2]; synchronized cells, 22 hr treatment, pulse 21-22 hr, during treatment, Table 8, control 5.3 ± 0.2): 4.6 ± 0.2 %/hr
Protein synthesis (NHIK 3025 cells [2]; synchronized cells, 22 hr treatment, pulse 23-24 hr, after treatment, Table 8, control 5.3 ± 0.2): 5.4 ± 0.1 %/hr
Metabolism and clearance from serum (in words) ([3]; compared with BG): slower than that of the undeuterated compound; also recorded: clearly slower metabolism and clearance from serum
viability at 6400 µM (NHIK 3025 cells [4]; [8]): 33 ± 7%
viability at 12800 µM (NHIK 3025 cells [4]; [8]): 0.8 ± 0.3%

Structure (SMILES): [2H]C(=O)c1ccccc1 [Deuterobenzaldehyde-d1]
Percentage of cells with duration of mitosis >4 h (NHIK 3025 cells [5]): 70%
Percentage of cells with duration of mitosis >5 h (NHIK 3025 cells [5]): 69%
Percentage of cells with duration of mitosis >6 h (NHIK 3025 cells [5]): 64%
Percentage of cells with duration of mitosis >3 h (NHIK 3025 cells [5]; control 2%): 74%
Percentage of cells with duration of mitosis >2 h (NHIK 3025 cells [5]; control 4%): 81%
Percentage of cells with duration of mitosis >1 h (NHIK 3025 cells [5]; control 17%): 87%
Percentage of cells with duration of mitosis <1 h (NHIK 3025 cells [5]; control 83%): 13%
Protein synthesis (NHIK 3025 cells [2]; 4 hr treatment, pulse 0-1, during treatment, Table 2, control 6.8 ± 0.9): 3.6 ± 0.3 %/hr
Protein synthesis (NHIK 3025 cells [2]; 4 hr treatment, pulse 4-5, after treatment, Table 2, control 6.8 ± 0.9): 4.7 ± 0.3 %/hr
Protein synthesis (NHIK 3025 cells [2]; 4 hr treatment, pulse 5-6, after treatment, Table 2, control 6.8 ± 0.9): 5.8 ± 0.3 %/hr
viability at 3200 µM (NHIK 3025 cells [4]; [9]): 68 ± 14%
viability at 12800 µM (NHIK 3025 cells [4]; [9]): 0.56 ± 0.2%
Prolongation (NHIK 3025 cells [6]; 2 mM, versus control 1): 15.2%
Duration of the part of the cell cycle starting 2 hr after selection (NHIK 3025 cells [6]; 2 mM, control 1 16.5): 19.0
Prolongation (NHIK 3025 cells [6]; 2.5 mM, versus control 2): 108.3%
Duration of the part of the cell cycle starting 2 hr after selection (NHIK 3025 cells [6]; 2.5 mM, control 2 16.8): 35.0

Stability (in words) [7]: instability
Structure (SMILES): [2H]C1(c2ccccc2)OC[C@@H]([C@H]2OC(=O)C(O)=C2O)O1 (stereo partly drawn) [deutero 5,6-O-benzylidene ascorbic acid, deutero 5,6-O-benzylidene-L-ascorbic acid]

pH of the solution ([7]; aqueous solution of mono-sodium salt): 6.6
Stability (in words) [7]: much more stable
Solubility in water ([7]; water): readily soluble in water
Structure (SMILES): [2H]C1(c2ccccc2)OC[C@@H]([C@H]2OC(=O)C(O)=C2O)O1 (stereo partly drawn) [mono-sodium salt of deutero 5,6-O-benzylidene-L-ascorbic aci] [mono-sodium salt of deutero 5,6-O-benzylidene-L-ascorbic acid]
